Laboratory results as given in patent publication US7897610B2, “Use of benzo[c]quinolizinium derivatives for the treatment of diseases that are linked to smooth muscle cell constriction” (Centre National de la Recherche Scientifique, priority 2002, dated 2011).
“And” between values parts separate entries of the source, which are not always exact repeats. Equal entries are not always repeated. “Also recorded” adds a separate entry of the source. Where two headings read alike, the source gives them in different places.

How the values were obtained:
[1] = test system: aorta rings with endothelium pre-contracted by arterenol; experiment: Isolated organ technique: relaxation of rat aorta rings pre-contracted by arterenol; assay type: cell-based
Experimental: The experiments are carried out on the thoracic aorta of male rats of Wistar strain weighing 200 to 250 g, 7 to 8 weeks of age. The rat is stunned then placed in the supine position. After thoracotomy, the segment of the aorta comprised between the diaphragm and the right aortic arch is excised. The portion of aorta is immediately placed in a buffered physiological solution of modified Krebs type. The aorta is sectioned into 5 mm rings. The aorta rings, after dissection, are suspended between two hooks one of which is fixed and the other is mobile. […] The thermostatically-controlled enclosure is supplied by a water bath. The mobile hook is suspended with a sensor connected to the interface (electromechanical transducer). This interface is connected on the one hand to an amplifier (amplification of the signal) and on the other hand to a computer (display and analysis of the signal). […] The Data Analyst and Prism 3.0 programs allow analysis of the results. After mounting the aorta rings in the experimental device, these are stretched at a basal tension of 2.5 g. This tension corresponds to the optimum point of their tension/length relationship. Waiting for a stable state in the reference physiological medium is carried out over a period of approximately 1 hour with washing every 20 minutes. Following this equilibration period, the different experiments are carried out. […]

[2] = test system: aorta rings of Cftr+/+ mice; experiment: Vasorelaxation of aorta rings contracted by 80 mM K+, Cftr+/+ mice; assay type: cell-based, mouse; details: for effect on pre-contracted aorta: Cftr+/+ rat and mouse tissues
Text: (§1) CFTR is detected at the level of its messenger RNA and at the level of protein in the smooth muscles. As negative control the inventors used musculus skeleti of rat at the level of which neither the messenger nor the protein are present. CFTR is detectable in the smooth muscle by immunoprecipitation and phosphorylation in vitro by the protein kinase A. The pharmacology of CFTR has been studied using iodide efflux in muscle cell freshly dissociated from rat aorta. […] Its inhibition profile is similar to that of epithelial CFTR (sensitivity to glibenclamide and DPC but not to Calixarene). […] Moreover, a greater contraction is observed in the KO animals in response to the constricting agents.
(§2) a, graphs showing the vasorelaxation induced by the VIP neuropeptide (Vasoactive Intestinal Polypeptide) of aortas without endothelium of Cftr^+/+ (left) and Cftr^−/− (right) mice. The aorta rings are reversibly contracted by a hyperpotassium solution (solution of 80 mM K^+) then the effect of 300 nM VIP is measured. The absence of endothelium is verified by the addition of acetylcholine (ACh, 10^−5 M).
(§3) This effect is absent in Cftr^−/− mice (n=6). Average±SEM*P<0.05, ** P<0.01, *** P<0.001.

[3] = test system: aorta rings of Cftr-/- mice; experiment: Vasorelaxation of aorta rings contracted by 80 mM K+, Cftr-/- mice; assay type: cell-based, mouse; details: pre-contracted aorta
Text: as §1, §2, §3

CFTR [4] = target: T1, CFTR (Rattus norvegicus, UniProt P34158); experiment: Iodide efflux in muscle cell freshly dissociated from rat aorta; assay type: cell-based
T1 construct: CFTR is detected at the level of its messenger RNA and at the level of protein in the smooth muscles; from tissue; host or cells: smooth muscle cells freshly dissociated from rat aorta
Text: as §1

[5] = test system: anionic transport in smooth muscle cells of aorta rings; experiment: Iodide efflux (125I) on rat aorta rings; assay type: cell-based; parameters: key to iodide discharge speed / iodide discharge speed after stimulation: Ln(125I t1/125I t2)/(t1−t2), per min; key to increase of discharge speed over basal state: difference of Ln(125I t1/125I t2)/(t1−t2) values, per min; details: for iodide discharge speed / increase of discharge speed over basal state: hyperpotassium medium; for activation of anionic transport / discharge speed: smooth muscle cells of aorta rings
Experimental: The iodide efflux technique, perfected by Venglarick et al. (1990), allows measurement of the movement of ions and is described in detail in Derand et al. (2001).
The aorta rings of equivalent size, are incubated in 1 ml of filling solution composed of physiological solution of modified Krebs type or hyperpotassium solution (80 mM KCl) supplemented with 1.5 μl/ml of Na ^125I and 0.1 μl/ml of KI. After incubation for 1 hour 30 minutes at 37° C., 4 successive rinsings of two minutes are carried out in 1 ml of appropriate physiological solution (normal Krebs or hyperpotassium solution). An iodide efflux kinetics of the aorta rings is carried out for 12 min. After each minute, the content of each well is sampled and placed in hemolysis tubes, and radioactivity is counted with a gamma counter (Packard, Cobra II). At the 12th minute, the aorta rings are solubilized in Sodium Dodecyl Sulphate (SDS 0.1%)+NaOH (0.1 M). This stage allows the recovery of the residual radioactivity by cell destruction.
The total radioactivity of the cells is calculated by the addition of the counts per minute (cpm) of each collected fraction and of the cpm of the solubilized fraction (residual radioactivity). The curves are plotted expressing the efflux as a percentage of the cell content accumulated in the medium as a function of time. For example, the value attributed at time tn, corresponds to: 100×(Σ cpm obtained from t0 to tn)/total radioactivity. The instantaneous discharge speed is presented according to the formula Ln(^125It1/^125It2)/(t1−t2), where t1 and t2 are two successive times and ^125It1 and ^125It2 are the effluxes measured at time t1 and t2. In order to evaluate the effect of a substance, the activation ratio r=discharge speed after stimulation/discharge speed before stimulation is determined. The results (average±SEM) are compared using Student's statistical test for a paired value.

[6] = test system: aorta rings isolated from rats; experiment: Isolated organ technique: relaxation of rat aorta rings pre-contracted in hyperpotassium solution (80 mM KCl); assay type: cell-based; details: for EC50: Rattus norvegicus
Experimental: The experiments are carried out on the thoracic aorta of male rats of Wistar strain weighing 200 to 250 g, 7 to 8 weeks of age. The rat is stunned then placed in the supine position. After thoracotomy, the segment of the aorta comprised between the diaphragm and the right aortic arch is excised. The portion of aorta is immediately placed in a buffered physiological solution of modified Krebs type. The aorta is sectioned into 5 mm rings.
For certain preparations, the endothelium is removed mechanically using a needle surrounded by a wire which is turned in the aorta ring.
The aorta rings, after dissection, are suspended between two hooks one of which is fixed and the other is mobile. This mounting is placed in a chamber of Plexiglas (Emka Technologies), thermostatically-controlled at 37° C., containing 5 ml of physiological solution oxygenated by a gas mixture (95% O2-5% CO2). The thermostatically-controlled enclosure is supplied by a water bath. The mobile hook is suspended with a sensor connected to the interface (electromechanical transducer). This interface is connected on the one hand to an amplifier (amplification of the signal) and on the other hand to a computer (display and analysis of the signal). The IOX 1.565 program enables the processing and display of the signals on the computer screen. The Data Analyst and Prism 3.0 programs allow analysis of the results.
After mounting the aorta rings in the experimental device, these are stretched at a basal tension of 2.5 g. This tension corresponds to the optimum point of their tension/length relationship. Waiting for a stable state in the reference physiological medium is carried out over a period of approximately 1 hour with washing every 20 minutes. Following this equilibration period, the different experiments are carried out.
In order to be free of the relaxation/contraction mechanisms due to the endothelium, certain preparations are made devoid of the latter by mechanical destruction. In order to ensure effective destruction of the endothelium, a cholinergic test (ACh 10^−4 M) is carried out at the end of the first period of equilibration, on preparations pre-contracted by a hyperpotassium solution (80 mM of KCl).
Following this test, the preparations are subjected to several successive washings in order to re-establish a stable state. Once a stable state is reached, the different experiments can be carried out. The contractures due to the hyperpotassium solutions are obtained by the total replacement of the reference physiological solution by the hyperpotassium solution. The administration of the pharmacological substances is carried out in a cumulative fashion and directly in the isolated organ chambers whilst paying attention that the additional volume is not too high. The application of each new concentration only occurs after stabilization. In order to be aware of the reactivity state of the preparation at the end of manipulation, a hyperpotassium or noradrenergic test is carried out. If the preparation reacts in the direction of a contracture, the test is valid.
The composition of the reference physiological solution is a solution of modified Krebs type: NaCl: 120 mM; KCl: 4.7 mM; CaCl2: 2.5 mM; MgCl2: 1.2 mM; NaH2PO4: 1.2 mM; NaHCO3: 15 mM; Hepes: 10 mM; Glucose: 11 mM; pH=7.4. Hyperpotassium solutions containing different concentrations of KCl have been prepared according to the same principle. These solutions are used to provoke a contracture of the aorta ring by depolarisation of the smooth muscle cells. The hyperpotassium solution mainly used in the experiments contains 80 mM of KCl.

human mammary arteries = experiment: Vasorelaxant effect on human mammary arteries; assay type: cell-based
Text: The pharmacological effects of the compounds of the benzo[c]quinolizinium family, CFTR activators: 6-hydroxy-10-chlorobenzo[c]quinolizinium chloride (reference name: MPB-07) and 5-butyl-6-hydroxy-10-chlorobenzo[c]quinolizinium chloride (reference name: MPB-91), were studied on aorta rings isolated from rats and from human mammary arteries.

CFTR [7] = target: T2, CFTR (Homo sapiens, UniProt P13569); details: epithelial cells; cited from earlier work
T2 construct: In cells expressing the CFTR protein in an endogenous manner

[8] = without endothelium, 250 μM, 1 minute after addition
[9] = without endothelium, 250 μM, 2 minutes after addition
[10] = comparison of FIG. 6, read-out: EC50, dose/response curves
[11] = summary statement of results, read-out: EC50, vasorelaxant effect

T1 sequence (P34158 whole entry): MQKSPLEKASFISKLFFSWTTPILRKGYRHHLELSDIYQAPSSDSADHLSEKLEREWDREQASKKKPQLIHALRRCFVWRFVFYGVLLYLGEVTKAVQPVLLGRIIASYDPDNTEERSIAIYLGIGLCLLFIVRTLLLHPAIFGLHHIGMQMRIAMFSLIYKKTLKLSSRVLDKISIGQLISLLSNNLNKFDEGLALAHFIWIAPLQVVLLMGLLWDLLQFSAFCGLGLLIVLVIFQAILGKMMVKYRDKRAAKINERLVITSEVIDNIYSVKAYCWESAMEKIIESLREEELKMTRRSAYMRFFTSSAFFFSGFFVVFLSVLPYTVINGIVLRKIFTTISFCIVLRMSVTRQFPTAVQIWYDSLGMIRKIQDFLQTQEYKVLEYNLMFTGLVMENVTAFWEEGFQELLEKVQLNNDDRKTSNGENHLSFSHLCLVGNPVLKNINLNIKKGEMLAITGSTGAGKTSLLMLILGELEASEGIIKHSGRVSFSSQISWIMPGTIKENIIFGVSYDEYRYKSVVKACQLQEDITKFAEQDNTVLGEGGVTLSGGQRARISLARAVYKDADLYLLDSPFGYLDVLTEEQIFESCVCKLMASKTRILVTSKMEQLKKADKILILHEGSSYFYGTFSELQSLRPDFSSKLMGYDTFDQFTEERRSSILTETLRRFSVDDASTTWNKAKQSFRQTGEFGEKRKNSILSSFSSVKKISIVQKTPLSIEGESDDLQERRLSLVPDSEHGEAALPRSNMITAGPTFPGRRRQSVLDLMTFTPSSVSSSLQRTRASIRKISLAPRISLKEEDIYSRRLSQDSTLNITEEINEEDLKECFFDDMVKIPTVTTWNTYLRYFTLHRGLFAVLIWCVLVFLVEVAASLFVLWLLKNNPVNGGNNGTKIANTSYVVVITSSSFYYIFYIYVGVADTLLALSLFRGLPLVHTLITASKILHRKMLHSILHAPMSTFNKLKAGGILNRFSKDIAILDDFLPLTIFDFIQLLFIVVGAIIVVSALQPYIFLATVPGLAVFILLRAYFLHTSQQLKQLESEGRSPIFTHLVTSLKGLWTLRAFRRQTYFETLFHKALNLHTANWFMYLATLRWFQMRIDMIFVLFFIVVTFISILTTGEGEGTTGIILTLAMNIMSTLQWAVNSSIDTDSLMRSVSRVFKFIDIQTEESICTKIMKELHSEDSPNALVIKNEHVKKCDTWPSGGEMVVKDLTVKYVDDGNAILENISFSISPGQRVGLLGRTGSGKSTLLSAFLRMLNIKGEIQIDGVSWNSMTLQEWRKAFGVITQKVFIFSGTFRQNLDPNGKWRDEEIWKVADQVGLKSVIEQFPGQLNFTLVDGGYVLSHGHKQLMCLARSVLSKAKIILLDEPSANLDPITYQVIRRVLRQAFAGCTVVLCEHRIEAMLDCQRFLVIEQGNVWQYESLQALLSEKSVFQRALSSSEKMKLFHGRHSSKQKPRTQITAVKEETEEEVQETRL
T2 sequence (P13569 whole entry): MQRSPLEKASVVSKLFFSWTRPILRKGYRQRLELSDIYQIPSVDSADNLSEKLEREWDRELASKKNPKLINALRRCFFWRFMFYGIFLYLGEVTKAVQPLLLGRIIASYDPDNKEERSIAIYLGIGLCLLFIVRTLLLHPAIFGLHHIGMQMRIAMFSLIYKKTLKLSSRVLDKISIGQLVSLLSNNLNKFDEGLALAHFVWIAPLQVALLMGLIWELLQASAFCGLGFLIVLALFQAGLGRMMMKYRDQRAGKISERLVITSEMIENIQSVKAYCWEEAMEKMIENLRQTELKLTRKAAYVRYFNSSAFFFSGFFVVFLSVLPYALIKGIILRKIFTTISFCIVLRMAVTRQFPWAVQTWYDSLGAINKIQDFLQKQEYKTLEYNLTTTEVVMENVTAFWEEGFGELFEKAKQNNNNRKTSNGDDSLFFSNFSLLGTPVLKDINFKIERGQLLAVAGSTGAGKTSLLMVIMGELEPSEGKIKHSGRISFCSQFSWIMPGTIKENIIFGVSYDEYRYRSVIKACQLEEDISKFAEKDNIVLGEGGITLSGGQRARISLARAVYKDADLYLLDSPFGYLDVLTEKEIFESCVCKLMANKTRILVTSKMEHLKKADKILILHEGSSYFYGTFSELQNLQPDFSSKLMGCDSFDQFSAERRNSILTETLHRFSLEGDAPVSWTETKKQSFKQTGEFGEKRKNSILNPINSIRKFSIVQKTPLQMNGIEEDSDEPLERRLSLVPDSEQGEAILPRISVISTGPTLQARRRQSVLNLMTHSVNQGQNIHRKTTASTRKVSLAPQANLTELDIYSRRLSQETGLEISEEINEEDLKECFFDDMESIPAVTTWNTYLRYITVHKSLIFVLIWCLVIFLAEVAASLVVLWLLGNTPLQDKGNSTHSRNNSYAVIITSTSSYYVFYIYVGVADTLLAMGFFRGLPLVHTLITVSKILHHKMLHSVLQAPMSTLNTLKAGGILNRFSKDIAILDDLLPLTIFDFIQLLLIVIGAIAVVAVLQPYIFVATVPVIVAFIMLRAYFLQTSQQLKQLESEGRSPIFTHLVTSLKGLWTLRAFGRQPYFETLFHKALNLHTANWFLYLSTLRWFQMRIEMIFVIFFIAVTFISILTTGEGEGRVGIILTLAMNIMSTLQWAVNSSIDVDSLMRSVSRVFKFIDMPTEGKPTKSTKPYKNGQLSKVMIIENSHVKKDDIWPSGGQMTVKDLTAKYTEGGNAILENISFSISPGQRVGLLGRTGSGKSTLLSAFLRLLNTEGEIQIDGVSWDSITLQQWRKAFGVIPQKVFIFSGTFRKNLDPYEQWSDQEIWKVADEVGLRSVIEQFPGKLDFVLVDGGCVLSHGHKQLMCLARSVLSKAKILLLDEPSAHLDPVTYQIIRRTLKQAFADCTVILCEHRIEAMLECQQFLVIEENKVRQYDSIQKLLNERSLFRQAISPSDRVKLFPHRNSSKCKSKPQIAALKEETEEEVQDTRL

COc1ccc(CCN(C)CCCC(C#N)(c2ccc(OC)c(OC)c2)C(C)C)cc1OC (stereo not shown) [verapamil, Verapamil, reference compound]
effect on rapid contracture oscillations ([1]; 200 μM, added after MPB-07 10 μM): stops these variations

Vasoactive Intestinal Polypeptide [VIP, reference compound]
effect on pre-contracted aorta [2]: relaxation of the pre-contracted aorta
vasorelaxation in Cftr-/- mice [3]: very considerably reduced
activation of iodide efflux (CFTR [4]): activate iodide efflux

Oc1cc2cccc[n+]2c2c(Cl)cccc12.[Cl-] [MPB-07, 6-hydroxy-10-chlorobenzo[c]quinolizinium chloride]
relaxation ([1]; 10 μM, arterenol 10^-4 M, after 2 hours 30 minutes): 90±9%
iodide discharge speed ([5]; L-NAME 10^-4 M, 250 μM, 1 minute after addition): 0.103±0.017
iodide discharge speed ([5]; L-NAME 10^-4 M, 250 μM, 2 minutes after addition): 0.110±0.015
iodide discharge speed ([5]; L-NAME 10^-4 M, 250 μM, 3 minutes after addition): 0.119±0.011
increase of discharge speed over basal state ([5]; L-NAME, 1 minute): 0.044
increase of discharge speed over basal state ([5]; L-NAME, 2 minutes): 0.051
increase of discharge speed over basal state ([5]; L-NAME, 3 minutes): 0.060
activation of anionic transport / discharge speed [5]: activates anionic transport
iodide discharge speed [5, 8]: 0.076±0.008
iodide discharge speed [5, 9]: 0.099±0.013
increase of discharge speed over basal state ([5]; without endothelium, 1 minute): 0.023
increase of discharge speed over basal state ([5]; without endothelium, 2 minutes): 0.046
iodide discharge speed after stimulation ([5]; without endothelium, normal physiological medium, 250 μM, n=3): 0.076±0.016
EC50 ([6]; aorta rings with endothelium, 80 mM KCl, n=14, read-out: EC50, relaxation): 132.4 ± 0.02 µM
EC50 ([6]; aorta rings without endothelium, 80 mM KCl, n=7, read-out: EC50, relaxation): 92.9 ± 0.02 µM
EC50 [6, 10]: 133 µM
EC50 [6, 11]: 134 µM
EC50 ([6]; with endothelium + L-NAME 10^-4 M, n=8, read-out: EC50, relaxation): 51.8 ± 0.008 µM
EC50 ([6]; without endothelium + L-NAME, n=7, read-out: EC50, relaxation): 55.1 ± 0.2 µM
reversibility of the relaxing effect ([6]; single dose 135 μM, with endothelium, after washing): reversible
relaxation ([6]; with endothelium + L-NAME, 40 μM): 33±6.15%
relaxation ([6]; with endothelium + L-NAME, 160 μM): 98±1.3%
relaxation ([6]; with endothelium, 80 μM): 24±1.6%
relaxation ([6]; with endothelium, 160 μM): 64%
relaxation ([6]; with endothelium, 250 μM): 88%
relaxation ([6]; with endothelium, 500 μM): 96±1.75% and 100%
relaxation ([6]; without endothelium, 80 μM): 37±5.6%
relaxation ([6]; without endothelium, 250 μM): 99±1%
vasorelaxant effect (human mammary arteries): reversible and slow dose-dependent vasorelaxant effect
effect on pre-contracted aorta [2]: relaxation of the pre-contracted aorta
IC50 ([2]; Mus musculus, aorta rings contracted by 80 mM K+, n=6): 37 ± 1.17 µM
vasorelaxation in Cftr-/- mice [3]: very considerably reduced; also recorded: absent
activity on the CFTR channel (CFTR [7]): activators of this ion channel

COc1ccc(Cl)cc1C(=O)NCCc1ccc(S(=O)(=O)NC(=O)NC2CCCCC2)cc1 [glibenclamide]
inhibition profile of iodide efflux (CFTR [4]): sensitivity

O=C(O)c1ccccc1Nc1ccccc1 [DPC]
inhibition profile of iodide efflux (CFTR [4]): sensitivity

CC(C)Cn1c(=O)n(C)c(=O)c2[nH]cnc21 [IBMX]
activation of iodide efflux (CFTR [4]): activate iodide efflux

Nc1ncnc2c1nc(Sc1ccc(Cl)cc1)n2[C@@H]1O[C@@H]2COP(=O)(O)O[C@H]2[C@H]1O [cpt-cAMP]
activation of iodide efflux (CFTR [4]): activate iodide efflux

CC(=O)OCC[N+](C)(C)C [ACh, acetylcholine, reference compound]
relaxation (cholinergic test) ([6]; rings with endothelium, 10^-4 M): approximately 40%

O=c1cc2ccccn2c2c(Cl)cccc12 [MPB-70, 10-chlorobenzo[c]quinolizine-6-one, reference compound]
activation of anionic transport / discharge speed [5]: no increase in the discharge speed
iodide discharge speed [5, 8]: 0.053±0.003
iodide discharge speed [5, 9]: 0.055±0.005
relaxation ([6]; with endothelium, 160 μM): 27%
relaxation ([6]; with endothelium, 250 μM): 42%
relaxation ([6]; with endothelium, 500 μM): 46%
activity on the CFTR channel (CFTR [7]): inactive on CFTR of epithelial cells

CCCCc1c(O)c2cccc(Cl)c2[n+]2ccccc12.[Cl-] [MPB-91, 5-n-Butyl-10-chloro-6-hydroxybenzo[c]quinolizinium chloride]
EC50 [6, 10]: 21 µM
EC50 [6, 11]: 21 µM
melting point: 160 °C
